Reference: patent publication US6127355A (priority 1999, dated 2000)
pIC50: −log10 of the molar value. Read-outs that look alike come from different tables or passages of the source.

Legend:
[1] = system: HT-29 (human colon carcinoma) cells; test: cells; type: cell-based; settings: read-out: IC50 (nM) HT-29
Protocol: (§1) In this example, a series of in vitro assays were conducted to determine the IC50 for unmodified camptothecin, unmodified paclitaxel and several of the high molecular weight prodrugs prepared as set forth above.
(§2) All compounds were independently tested against one or more of the P388/0 (murine lymphoid neoplasm, Southern Research Institute), HT-29 (human colon carcinoma) and A549 (human lung adeno carcinoma) cell lines.
(§3) The P388/0 cells were grown in RPMI 1640 medium (Whittaker Bioproducts, Walkersville, Md.)+10% FBS (Hyclone Inc., Logan Utah). The HT-29 cells were grown in DMEM (GIBCOBRL)+10% FBS (Hyclone, Inc.). The A549 cells were grown in DMEM/F-12 (Biowhitaker)+10% FBS (Heat inactivated). Bioassays were performed in their respective media containing antibiotics and fungizone.
(§4) Camptothecin and paclitaxel were dissolved in DMSO and diluted to the appropriate concentration in culture media. The PEG-Camptothecin and PEG-paclitaxel prodrugs were dissolved in water and diluted to the appropriate concentrations in culture media.
(§5) The assays were performed in duplicate in 96-well microtiter cell culture plates. Two fold serial dilution of the compounds were done in the microtiter plates. Cells were detached by incubating with 0.1% Trypsin/Versene at 37°. Trypsin was inactivated by adding the appropriate media for each cell line containing 10% FBS. To each well of the microtiter plates, 10,000 cells were added. After three days, cell growth was measured by addition of a metabolic indicator dye, Alamar Blue, according to the manufacturer's protocol. The IC50 value for each test compound was determined and compared to the IC50 for the appropriate reference compound.
HT29 Human colon carcinoma cell line

[2] = system: one or more of the P388/0, HT-29 and A549 cell lines; test: cells; type: cell-based
Protocol: as §1, §2, §3, §4, §5
The IC50 values for some of the compounds formed in examples 47-53 were determined using the same process as that described above with regard to example 45 and compared to native camptothecin.

[3] = system: murine leukemia cell line P388/0; test: Murine Leukemia Model (In vivo P388); design: species or system mouse; settings: ip, days 1-5; for Survival Rate %: survival at 40 days
Protocol: (§6) In this Example, the in vivo activity of some of the compounds prepared in accordance with the present invention was assessed using the Murine Leukemia Model and the Colorectal Xenograft model.
The compounds shown in the Table below were screened for in vivo activity against the murine leukemia cell line P388/0 (mouse, lymphoid neoplasm). The cell line was obtained from Southern Research Institute (Birmingham, Ala.) and grown in RPMI 1640 supplemented with 10% FBS. P388/0 cells were subcultured two times per week and log phase cultures (viability ≥95%/o) were used for all in vivo experiments. Female CD2F1 mice (Taconic Farms, Germantown, N.Y.) at 7-8 weeks of age were used for study. Following one week of acclimation, mice were implanted ip with P388/0 cells (5×10^5 cells/mouse) at designated day 0 (zero). The mice were randomly assigned to experimental groups (10-20 per group). The groups included Control groups and several which received one of the drugs or prodrugs. The mice were then dosed (500 μL, ip) for 5 consecutive days (days 1-5). Control groups received vehicle (intralipid or water). The mice were monitored for up to 40 days, and the treatment was evaluated and expressed as the percentage survival at 40 days.

[4] = system: P388/0 (murine lymphoid neoplasm) cells; test: cells; type: cell-based; settings: read-out: IC50 (nM) P388
Protocol: as §1, §2, §3, §4, §5
P-388 Murine leukemia cell line

[5] = system: solid tumor HT-29 (human, colon adenocarcinoma); test: Colorectal Xenograft (In vivo HT-29); design: species or system human tumor in nu/nu mice; settings: total active dose 62.5 mg/kg, i.p.
Protocol: as §6
(§7) Female nu/nu mice (Harlan Sprague Dawley, Madison, Wis.), 18-24 g and 10-14 weeks old, at onset of treatment were used. The solid tumor HT-29 (human, colon adenocarcinoma) was obtained from the ATCC (HTB 38) and grown in DMEM supplemented with 10% FBS. Cells were subcultured once a week and for in vivo experiments viabilities were ≥90%. Mice were housed in microisolator filtration racks, and maintained with filtered acidified water and sterile laboratory chow ad libitum. Following one week of acclimation, tumors were established by injecting 1×10^6 harvested HT-29 tumor cells in a single subcutaneous site, on the flank of mice in the left axillary region. The tumor injection site was observed twice weekly and measured once palpable. The tumor volume for each mouse was determined by measuring two dimensions with calipers and calculated using the formula: tumor volume=(length×width^2)/2. When tumors reached the average volume of 300 mm^3, the mice were divided into their experimental groups. The non-Control groups received Camptothecin 2.5 mg/kg/day, the prodrugs being dosed on the basis of camptothecin content. The mice were sorted to evenly distribute tumor size, grouped into 5 mice/cage, and ear punched for permanent identification. Mice receiving drugs were treated i.p. 5 times a week, Monday through Friday for 5 weeks with 500 μL of test article. Mouse weight and tumor size were measured at the beginning of study and weekly through week 7. The overall growth of tumors was expressed as the percent change in tumor size calculated by subtracting mean initial tumor volume from mean tumor volume at the end of the treatment and dividing by mean initial tumor volume.

[6] = Colorectal Xenograft (In vivo HT-29); design: species or system human tumor in nu/nu mice; settings: mouse, in vivo, ip; week 5 (end of treatment); total active dose 62.5 mg/kg
Protocol: as §6, §7

[7] = cell line not stated, same process as example 45, read-out: IC50

Compound: CC[C@@]1(O)C(=O)OCc2c1cc1n(c2=O)Cc2cc3ccccc3nc2-1 [Camptothecin, reference compound]
- IC50 ([1]; Homo sapiens, HT-29, 72 h): 21 nM
- pIC50 [2]: 8.15
- Survival Rate % ([3]; total active dose 16 mg/kg): 80%
- IC50 ([4]; Mus musculus, P388, 72 h): 5 nM
- Body weight change (%) ([5]; week 5 (end of treatment)): -3%
- Tumor growth (%) ([5]; week 5 (end of treatment)): -20%
- Body weight change (%) ([5]; week 7 (2 week post treatment)): -3%
- Tumor growth (%) ([5]; week 7 (2 week post treatment)): 62%
- mortality at 840 h [6]: 50%

Compound: CC[C@@]1(OC(=O)n2ccnc2)C(=O)OCc2c1cc1n(c2=O)Cc2cc3ccccc3nc2-1 [Compound 54, camptothecin-20-O-carbonylimidazolyl carbonate]
- pIC50 ([2]; read-out: IC50): 7.16

Compound: CC[C@@]1(OC(=O)Oc2ccc([N+](=O)[O-])cc2)C(=O)OCc2c1cc1n(c2=O)Cc2cc3ccccc3nc2-1 [Compound 55, camptothecin-20-O-paranitrophenyl carbonate]
- pIC50 [2, 7]: 6.44

Compound: CC[C@@]1(OC(=O)ON2C(=O)CCC2=O)C(=O)OCc2c1cc1n(c2=O)Cc2cc3ccccc3nc2-1 [Compound 56, camptothecin-20-O-N-hydroxysuccinimidyl carbonate]
- pIC50 [2, 7]: 5.99

Compound: CC[C@@]1(OC(=O)OC)C(=O)OCc2c1cc1n(c2=O)Cc2cc3ccccc3nc2-1 [Compound 59, camptothecin-20-O-methyl carbonate]
- pIC50 [2, 7]: 7.96

Compound: CC[C@@]1(OC(=O)OCC(C)C)C(=O)OCc2c1cc1n(c2=O)Cc2cc3ccccc3nc2-1 [Compound 60, camptothecin-20-O-isobutyryl carbonate]
- pIC50 ([2]; read-out: IC50): 7.54

Compound: CC[C@@]1(O)C(=O)OCc2c1cc1n(c2=O)Cc2cc3c(CN(C)C)c(O)ccc3nc2-1 [Topotecan, reference compound]
- IC50 ([1]; 72 h, HT-29 human colon carcinoma cell line, three days): 99 nM
- IC50 ([4]; Mus musculus, 72 h, P388 murine leukemia cell line, three days): 29 nM

Compound: Bis-Camptothecin-N-Acetyl-PEG40kDa -20-O-Glycinate [Compound 37b]
- IC50 [1]: 137 nM
- IC50 [4]: 49 nM

Compound: Bis-Camptothecin-N-PEG40kDa -20-O-Glycinate [Compound 37a]
- IC50 [1]: 110 nM
- IC50 [4]: 24 nM

Compound: Camptothecin-20-O-Glycinate PEG40kDa -Amide Derivative [Compound 48]
- Survival Rate % ([3]; total active dose 16 mg/kg): 80%
- Tumor growth (%) ([5]; week 5 (end of treatment)): -80%
- Tumor growth (%) ([5]; week 7 (2 week post treatment)): -96%

Compound: Camptothecin-20-O-Glycinate PEG40kDa Carbamate Derivative [Compound 49]
- IC50 [1]: 40 nM
- IC50 [4]: 33 nM

Compound: Camptothecin-20-O-ester of 2-PEG40k N-methylcarbamoyl Acetic Acid [Compound 5b]
- IC50 [1]: 153 nM
- IC50 [4]: 18 nM

Compound: Camptothecin-20-O-ester of 2-PEG40kDa Carbamoylacetic Acid [Compound 5a]
- IC50 ([1]; HT-29 human colon carcinoma cell line, three days): 30 nM
- IC50 ([4]; P388 murine leukemia cell line, three days): 7 nM

Compound: Camptothecin-20-O-ester of PEG20kDa diacid
- 50% survival ([3]; total active dose 11.4 mg/kg): 21 days
- Survival Rate % ([3]; total active dose 11.4 mg/kg): 10%

Compound: camptothecin-20-O-PEG5kDa carbamate [Compound 57]
- pIC50 [2, 7]: 6.04
